Experimental data taken from BindingDB's records for doi:10.1021/jm00362a020 (1983).

Target: Glycolate oxidase (Sus scrofa)
Assay: In vitro inhibition of porcine Glycolate oxidase

| Structure (SMILES) | IC50 |
| --- | --- |
| O=C(O)C(=O)CC(=O)c1ccc(C2CCCc3ccccc32)cc1 (centres undefined) | 2.1 µM |
| O=C(O)C(=O)CC(=O)c1ccc(-c2ccc(Br)cc2)cc1 | 0.063 µM |
| CSc1ccc(-c2ccc(C(=O)CC(=O)C(=O)O)cc2)cc1 | 0.16 µM |
| O=C(O)C(=O)CC(=O)c1ccc(-n2c(-c3ccccc3)cc3ccccc32)cc1 | 0.18 µM |
| O=C(C=Cc1ccccc1)CC(=O)C(=O)O | 19 µM |
| O=C(O)C(=O)CC(=O)c1ccc(-c2ccc(SCC3(O)COc4ccccc4OC3)cc2)cc1 | 0.06 µM |
| O=C(O)C(=O)CC(=O)c1ccc(-c2ccc(SCc3ccccc3)cc2)cc1 | 0.4 µM |
| CC1=C(C=CC(=O)CC(=O)C(=O)O)C(C)(C)CCC1 | 1.4 µM |
| CCCCCCCCCc1ccc(C(=O)CC(=O)C(=O)O)cc1 | 0.6 µM |
